Experimental data: patent publication US20240343710A1, “HETEROCYCLIC COMPOUNDS AND METHODS OF USE THEREOF” (1cBio, Inc., priority 2023, published 2024)
Structures can show the parent of a compound that is named as a salt. Where two headings read alike, the source gives them in different places.

Legend:
recombinant human PARP1 = recombinant human PARP1 (Homo sapiens, UniProt P09874); assay: PARP1 fluorescence polarization binding assay; settings: GST-tagged PARP1 20 nM, PARP1-FL probe 3 nM
Method: In some embodiments, the biological assay is described in the Examples herein. In some embodiments, the biological assay measures PARP-1 binding by way of fluorescence polarization measurements. In some embodiments, binding of a test compound to recombinant human PARP-1 reduces the amount of binding of a fluorescent probe, and consequently reduces the detected level of fluorescence polarization. In some test compound stock solutions are prepared in a solvent, e.g., DMSO, and are serially diluted into a range of concentrations, e.g., 15 concentrations, 14 concentrations, 13 concentrations, 12 concentrations, 11 concentrations, 10 concentrations, 9 concentrations, 8 concentrations, 7 concentrations, 6 concentrations, or 5 concentrations, by a dilution factor, e.g., a 10-fold dilution factor, a 9-fold dilution factor, an 8-fold dilution factor, a 7-fold dilution factor, a 6-fold dilution factor, a 5-fold dilution factor, a 4-fold dilution factor, a 3-fold dilution factor, or a 2-fold dilution factor. In some embodiments, the serial dilutions, e.g., 100 nL of serial dilution, 90 nL of serial dilution, 80 nL of serial dilution, 70 nL of serial dilution, 60 nL of serial dilution, 50 nL of serial dilution, 30 nL of serial dilution, 20 nL of serial dilution, or 10 nL of serial dilution, are added to a multi-welled plate, e.g., a 1536-well plate, a 384-well plate, or a 96-well plate. In some embodiments, PARP-1, e.g., GST-tagged PARP-1, is diluted in assay buffer, e.g., 50 μL of assay buffer, 40 μL of assay buffer, e.g., 30 μL of assay buffer, 20 μL of assay buffer, 10 μL of assay buffer, or 5 μL of assay buffer, and is added to the plate. In some embodiments, the plate is centrifuged, e.g., at 1000 rpm for 1 min, and incubated, e.g., incubated for 30 minutes at room temperature (RT). In some embodiments, a fluorescent probe, e.g., 10 μL of 6 nM PARP1-FL (TOCRIS, Cat #6461), is diluted in an assay buffer and is added to the plate. In some embodiments, the final concentrations of PARP-1 and fluorescent probe are 20 nM and 3 nM, respectively, in a total volume of 20 μL. In some embodiments, the plate is centrifuged, e.g., at 1000 rpm for 1 minute, and the assay plate is incubated, e.g., for 4 h at RT. In some embodiments, the samples in each well are read using a plate reader, e.g., an Envision instrument using excitation=480 nm, and emission wavelength=FITC FP-P pol 535 nm & FITC FP-S pol 535 nm). In some embodiments, percent inhibition is calculated from mP values using Inhibition (%)=[1−(mPc−mPL)/(mPH−mPL)]×100%, where mPc, mPL, and mPH are the mP values of test compound, Low controls, and High controls, respectively. In some embodiments, binding IC50 values are calculated using XLFit (equation 201: y=A+((B−A)/(1+((x/C)^D))), where A=bottom, B=top, C=IC50, and D=slope) with a floating top and bottom for curves.
Compounds of the present disclosure were tested in a PARP1 fluorescence polarization binding assay at Pharmaron (Beijing, P.R. China). In this biochemical assay, binding of test compound to recombinant human PARP1 reduces the amount of binding of a fluorescent probe, and consequently reduces the detected level of fluorescence polarization. Test compound stock solutions were prepared in DMSO and then serially diluted into 10 concentrations by 3-fold dilution in a 384-well plate using a TECAN EVO200. Alternatively, a single concentration was prepared. 60 nL of each dilution was transferred to the plate using an Echo550 (Labcyte), and then 10 μL 40 nM GST-tagged PARP1 (BPS Bioscience, Cat #80501), diluted in assay buffer (50 mM Tris pH 8.0, 0.001% Triton X-100, 10 mM MgCl2, 150 mM NaCl), was added to the plate. After a centrifugation at 1000 rpm for 1 min, the assay plate was incubated for 30 min at RT. 10 μL 6 nM PARP1-FL (TOCRIS, Cat #6461), diluted using assay buffer, was then added to the plate. The final concentrations of PARP1 and PARP1-FL were 20 nM and 3 nM, respectively, in a total volume of 20 μL. […]

[1] = tested on: DLD-1 wild-type colorectal adenocarcinoma cells; assay: Cell viability assay (Cell Titer-Glo, 7 days), DLD-1 wild-type; type: cell-based; settings: Homo sapiens, 168 h, DLD-1 wild-type cells, read-out: DLD-1 wild-type % inh at 10 μM
Excerpt: (§1) In some embodiments, the biological assay measures the effects that compounds of the present disclosure may have on the viability of cells, e.g., the viability of cancer cells. In some embodiments, DLD-1 wild-type and DLD-1 BRCA2(−/−) colorectal adenocarcinoma cells, an isogenic pair of cell lines differing in the presence and absence, respectively, of both BRCA2 alleles, are used to measure the effect of the disclosed compounds on the viability of cancer cells. In some embodiments, the cells are harvested during the logarithmic growth period, counted, and seeded at a specified count in the wells of a 96- or 384-well cell culture plate. In some embodiments, after seeding, the cells are incubated, e.g., at 37° C., 5% CO2 overnight. In some embodiments, the cells are treated with compounds, e.g., with serially diluted test compounds at 8-11 concentrations within a desired concentration range, e.g., from 1 nM-10 μM, for the generation of dose-response curves. In some embodiments, the plate is further incubated, e.g., for another 3-7 days in a humidified incubator at 37° C. and 5% CO2. In some embodiments, cell viability is assessed by luminescence measurement after addition of Cell Titer-Glo reagent (Promega, Madison, Wis.) according to the manufacturer's instructions. In some embodiments, cell viability IC50 values are calculated using XLFit, equation 201: y=A+((B−A)/(1+((x/C)^D))), where A=bottom, B=top, C=IC50, and D=slope. In some embodiments, the effects of the test compounds on the viability of other cell lines such as MDA-MB-436, MDA-MB-231, SUM149PT, HCC1395, and UWB1.289 are determined in an analogous method.
(§2) Compounds of the present disclosure were tested for their effects on the viability of cancer cells. DLD-1 wild-type and DLD-1 BRCA2(−/−) colorectal adenocarcinoma cells, an isogenic pair of cell lines differing in the presence and absence, respectively, of both BRCA2 alleles, were used. The cells were harvested during the logarithmic growth period, counted, and seeded at 50 cells/well for DLD-1 wild-type and 200 cells/well for DLD-1 BRCA2(−/−) in a 384-well cell culture plate. After seeding, cells were incubated at 37° C., 5% CO2 overnight. Cells were treated with serially diluted test compounds at 10 concentrations (e.g., from 1.5 nM-30 μM) for generation of dose response curves, or at a single concentration. The plate was further incubated for another 7 days in a humidified incubator at 37° C. and 5% CO2. Cell viability was assessed by luminescence measurement after addition of Cell Titer-Glo reagent (Promega, Madison, Wis.) according to the manufacturer's instructions. Cell viability IC50 values were calculated using XLFit, equation 201. y=A+((B−A)/(1+((x/C)^D))), where A=bottom, B=top, C=IC50, and D=slope. IC50 values are shown in Table B and are presented in ranges, in which “+++”<300 nM, 300 nM≤“++”<3000 nM, and “+”≥3000 nM. Values for percent inhibition at 10 μM are also shown in Table B and are presented in ranges, in which “***”≥67%, 33%: “**”≤67%, and “*”<33%. Effects of the test compounds on the viability of other cell lines such as MDA-MB-436, MDA-MB-231, SUM149PT, HCC1395, and UWB1.289 are determined in an analogous method.

recombinant human PARP2 = recombinant human PARP2 (Homo sapiens, UniProt Q9UGN5); assay: PARP2 fluorescence polarization binding assay; settings: read-out: PARP2 % inh at 10 μM
recombinant human PARP2, sequence (Q9UGN5 whole entry): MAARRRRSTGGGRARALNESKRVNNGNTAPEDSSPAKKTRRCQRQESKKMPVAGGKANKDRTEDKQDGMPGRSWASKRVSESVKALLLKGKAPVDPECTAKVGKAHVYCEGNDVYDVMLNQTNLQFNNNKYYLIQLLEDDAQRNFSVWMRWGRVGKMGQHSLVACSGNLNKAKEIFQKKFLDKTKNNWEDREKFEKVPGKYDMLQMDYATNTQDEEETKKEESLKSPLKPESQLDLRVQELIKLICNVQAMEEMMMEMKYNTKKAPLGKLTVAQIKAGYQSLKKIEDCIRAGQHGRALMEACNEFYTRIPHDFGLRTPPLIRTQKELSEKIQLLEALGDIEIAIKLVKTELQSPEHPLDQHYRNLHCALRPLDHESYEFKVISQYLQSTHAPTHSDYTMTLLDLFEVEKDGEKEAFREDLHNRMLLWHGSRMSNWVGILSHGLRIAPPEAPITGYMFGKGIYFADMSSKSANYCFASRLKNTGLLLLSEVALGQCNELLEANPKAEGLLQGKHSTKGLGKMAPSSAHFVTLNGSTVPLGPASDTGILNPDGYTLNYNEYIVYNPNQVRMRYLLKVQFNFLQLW

[2] = tested on: DLD-1 BRCA2(−/−) colorectal adenocarcinoma cells; assay: Cell viability assay (Cell Titer-Glo, 7 days), DLD-1 BRCA2(−/−); type: cell-based; settings: Homo sapiens, 168 h, DLD-1 BRCA2(−/−) cells
Excerpt: as §1, §2

[3] = percent inhibition at 10 μM, fluorescence polarization, GST-tagged PARP2 20 nM, PARP1-FL probe 3 nM

recombinant human PARP1, sequence (P09874 whole entry): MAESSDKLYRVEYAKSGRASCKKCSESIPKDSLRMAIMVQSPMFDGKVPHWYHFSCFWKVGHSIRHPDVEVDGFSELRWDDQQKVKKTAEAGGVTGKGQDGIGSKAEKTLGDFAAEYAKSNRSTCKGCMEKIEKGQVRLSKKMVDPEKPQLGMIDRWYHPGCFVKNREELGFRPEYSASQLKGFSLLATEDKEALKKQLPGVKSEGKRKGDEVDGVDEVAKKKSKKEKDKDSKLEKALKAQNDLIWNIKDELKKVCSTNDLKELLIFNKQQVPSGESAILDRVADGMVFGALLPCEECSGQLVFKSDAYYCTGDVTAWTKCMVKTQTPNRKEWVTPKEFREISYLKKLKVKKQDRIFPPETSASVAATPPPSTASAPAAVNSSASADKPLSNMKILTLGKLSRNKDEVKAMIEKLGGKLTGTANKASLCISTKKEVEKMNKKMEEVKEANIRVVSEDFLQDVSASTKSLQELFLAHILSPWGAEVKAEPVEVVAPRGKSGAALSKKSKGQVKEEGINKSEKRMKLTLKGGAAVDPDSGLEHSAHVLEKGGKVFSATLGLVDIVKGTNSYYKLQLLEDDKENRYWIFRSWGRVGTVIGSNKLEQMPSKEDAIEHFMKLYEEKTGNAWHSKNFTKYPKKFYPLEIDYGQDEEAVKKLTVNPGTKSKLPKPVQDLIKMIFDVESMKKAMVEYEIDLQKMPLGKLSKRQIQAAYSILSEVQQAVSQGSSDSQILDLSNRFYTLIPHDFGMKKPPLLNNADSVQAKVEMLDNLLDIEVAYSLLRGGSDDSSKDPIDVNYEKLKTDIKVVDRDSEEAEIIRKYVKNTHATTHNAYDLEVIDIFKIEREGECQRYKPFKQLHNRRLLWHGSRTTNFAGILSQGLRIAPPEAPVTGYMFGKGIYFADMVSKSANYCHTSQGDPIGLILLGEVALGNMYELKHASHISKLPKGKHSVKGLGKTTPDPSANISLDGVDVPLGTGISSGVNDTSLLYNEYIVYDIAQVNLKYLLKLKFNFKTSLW

Row | Compound | IC50 (recombinant human PARP1) [nM] | inhibition at 10 µM [1] [%] | inhibition at 10 µM (recombinant human PARP2; [3]) [%] | IC50 [2] [nM] | inhibition at 10 µM (recombinant human PARP2) [%]
1 | CCNC(=O)Nc1cc(CN2CCN(c3ccc(C(=O)CC)nc3C)CC2)ccn1 [Compound 7, 1-ethyl-3-(4-((4-(2-methyl-6-propionylpyridin-3-yl)piperazin-1-yl)methyl)pyridin-2-yl)urea] | < 100 | 33 to 67 | < 33 | 300 to 3000 | 
2 | CCNC(=O)Nc1cc(CN2CCN(c3ccc(C#N)nc3)CC2)ccn1 [Compound 267, 1-(4-((4-(6-cyanopyridin-3-yl)piperazin-1-yl)methyl)pyridin-2-yl)-3-ethylurea formate] | < 100 | < 33 |  | < 300 | < 33
3 | CCNC(=O)Nc1nccc(CN2CCN(c3ccc(C(=O)NC)nc3C)CC2)c1F [Compound 82, 5-(4-((2-(3-ethylureido)-3-fluoropyridin-4-yl)methyl)piperazin-1-yl)-N,6-dimethylpicolinamide] | < 100 | < 33 | < 33 | < 300 | 
4 | CCNC(=O)Nc1cc(CN2CCN(c3ccc(-c4ncc[nH]4)nc3C)CC2)ccn1 [Compound 272, 1-(4-((4-(6-(1H-imidazol-2-yl)-2-methylpyridin-3-yl)piperazin-1-yl)methyl)pyridin-2-yl)-3-ethylurea formate] | < 100 | < 33 |  | < 300 | < 33
5 | CCNC(=O)Nc1cc(CN2CCN(c3ccc(C(=O)NC)cc3F)CC2)ccn1 [Compound 31, 4-(4-((2-(3-ethylureido)pyridin-4-yl)methyl)piperazin-1-yl)-3-fluoro-N-methylbenzamide] | < 100 | < 33 | < 33 | 300 to 3000 | 
6 | CNC(=O)c1ccc(N2CCN(Cc3ccnc(NC(=O)NCC(F)F)c3)CC2)c(C)n1 [Compound 262, 5-(4-((2-(3-(2,2-difluoroethyl)ureido)pyridin-4-yl)methyl)piperazin-1-yl)-N,6-dimethylpicolinamide] | < 100 | < 33 | < 33 | < 300 | 
7 | CCCC(=O)Nc1cc(CN2CCN(c3ccc(C(=O)NC)nc3C)CC2)ccn1 [Compound 161, 5-(4-((2-butyramidopyridin-4-yl)methyl)piperazin-1-y)-N,6-dimethylpicolinamide] | 100 to 3000 | < 33 | < 33 | 300 to 3000 | 
8 | CCNC(=O)Nc1cc(CN2CCN(c3cnc4c(NC)nccc4c3)CC2)ccn1 [Compound 257, 1-ethyl-3-(4-((4-(8-(methylamino)-1,7-naphthyridin-3-yl)piperazin-1-yl)methyl)pyridin-2-yl)urea] | < 100 | < 33 | 33 to 67 | 300 to 3000 | 
9 | CNC(=O)C(=O)Nc1cc(CN2CCN(c3ccc(C(=O)NC)nc3C)CC2)ns1 [Compound 280, N1-methyl-N2-(3-((4-(2-methyl-6-(methylcarbamoyl)pyridin-3-yl)piperazin-1-yl)methyl)isothiazol-5-yl) oxalamide formate] | ≥ 3000 |  |  |  | 
10 | CCNS(=O)(=O)Nc1cc(CN2CCN(c3ccc(C(=O)NC)nc3C)CC2)ccn1 [Compound 105, 5-(4-((2-((N-ethylsulfamoyl)amino)pyridin-4-yl)methyl)piperazin-1-yl)-N,6-dimethylpicolinamide] | ≥ 3000 |  | < 33 |  | 
11 | CCNC(=O)Nc1cc(CN2CCN(c3ccc(C(=O)NC)nc3C)CC2)n(C)n1 [Compound 281, 5-(4-((3-(3-ethylureido)-1-methyl-1H-pyrazol-5-yl)methyl)piperazin-1-yl)-N,6-dimethylpicolinamide trihydrochloride] | < 100 |  |  |  | 
12 | CCNC(=O)Nc1cc(CN2CCN(c3ccc(C(=O)NC#N)nc3C)CC2)ccn1 [Compound 3, N-cyano-5-(4-((2-(3-ethylureido)pyridin-4-yl)methyl)piperazin-1-yl)-6-methylpicolinamide dihydrochloride] | ≥ 3000 |  |  |  | 
13 | CCNC(=O)Nc1cc(CN2CCN(c3ccc(C(=O)NC)nc3C)CC2)no1 [Compound 279, 5-(4-((5-(3-ethylureido)isoxazol-3-yl)methyl)piperazin-1-yl)-N,6-dimethylpicolinamide] | < 100 |  |  |  | 
